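These data come from cells grown in 96-well plates and exposed to compound for 48 hours at five concentrations. GI50 is the concentration that inhibits growth by half.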 Calls of active or inactive are those of the source. No stated cut-off is given here; in the data, active = GI50 up to about 1.1 µM and inactive = higher.

Results on eleven molecules are retold here after ChEMBL document CHEMBL1201862, “PubChem BioAssay data set” (2004).

Test systems include TK-10; UACC-62; SNB-19; SK-MEL-28; SF-295; MOLT-4; HCT-116; KM12; NCI-H23; SF-268; PC-3; UACC-257; HOP-62; A549; A498; MDA-MB-231; K562; ACHN; EKVX; CAKI-1.
Holding throughout (assay): inhibition of tumour cell growth, NCI panel, 48 h

`CC1(C)CCCCC1/C=C/C(CC(O)(C(F)(F)F)C(F)(F)F)=N\Nc1ccc([N+](=O)[O-])cc1[N+](=O)[O-]` (stereo not drawn): the GI50 in the test on TK-10 is 0.546 µM (active); in the test with UACC-62, 1.02 µM (active); with SNB-19, 4.5 µM (inactive); in the test with SK-MEL-28, 4.23 µM (inactive); in the test with SF-295, 2.42 µM (inactive); in the test with MOLT-4, 0.807 µM (active). Also, the GI50 with HCT-116 is 0.587 µM (active); with KM12, 2.68 µM (inactive); with NCI-H23 it was 0.29 µM (active); in the test on SF-268, 0.527 µM (active); in the test on PC-3, 0.333 µM (active); in the test with UACC-257 it was 0.962 µM (active). Besides, the GI50 is 0.578 µM (active) in the test on HOP-62; 1.26 µM (inactive) in the test on A549; 1.25 µM (inactive) in the test on A498; 2.03 µM (inactive) in the test on MDA-MB-231; 0.368 µM (active) in the test with K562; 0.48 µM (active) in the test on ACHN.
For the molecule `O=C1OC(c2ccccc2)N/C1=C\c1ccc2c(c1)OCO2` (stereo not drawn), the GI50 with TK-10 is > 100 µM (inactive); in the test on EKVX, > 100 µM (inactive); in the test with UACC-62, > 100 µM (inactive); in the test with SNB-19, > 100 µM (inactive); in the test with SK-MEL-28, 87.5 µM (inactive); in the test with SF-295 it was > 100 µM (inactive). The GI50 is > 63.1 µM (inactive) in the test on MOLT-4; > 100 µM (inactive) in the test on HCT-116; 46.7 µM (inactive) in the test with KM12; > 100 µM (inactive) with CAKI-1; > 100 µM (inactive) in the test on NCI-H23; > 100 µM (inactive) in the test with SF-268. The GI50 is > 100 µM (inactive) in the test with PC-3; > 100 µM (inactive) with UACC-257; > 56.8 µM (inactive) in the test with HOP-62; > 100 µM (inactive) with A549; > 100 µM (inactive) in the test on MDA-MB-231; > 100 µM (inactive) in the test with K562. Also, the GI50 in the test on ACHN is > 100 µM (inactive).
Regarding `O=C(/C=C/c1c[nH]c2ccccc12)c1ccccc1O`, the GI50 is 18.3 µM (inactive) in the test with TK-10; 5.97 µM (inactive) with EKVX; 8.17 µM (inactive) in the test on UACC-62; 16.5 µM (inactive) in the test on SNB-19; 19.2 µM (inactive) in the test with SK-MEL-28; 10.4 µM (inactive) in the test on SF-295. Moreover, the GI50 is 7.41 µM (inactive) with MOLT-4; 12.9 µM (inactive) in the test with HCT-116; 11.3 µM (inactive) in the test on KM12; 16.6 µM (inactive) in the test with SF-268; 4.03 µM (inactive) with PC-3; 15.5 µM (inactive) in the test with UACC-257. In addition, the GI50 in the test on HOP-62 was 14.3 µM (inactive); in the test on A549, 10.5 µM (inactive); in the test on A498 it was 15.1 µM (inactive); with MDA-MB-231, 3.18 µM (inactive); in the test with K562, 5.32 µM (inactive); with ACHN, 12.6 µM (inactive).
For the molecule `CC(C)SC(C)(NC(=O)C1C(C)(C)CCC1(C)C)C(=O)O` (stereo not drawn), the GI50 with TK-10, in the test on EKVX, with SNB-19, with SK-MEL-28, in the test on MOLT-4 and in the test with HCT-116 was > 100 µM (inactive) in each case. The GI50 in the test with NCI-H23, in the test with SF-268, with PC-3, with HOP-62, in the test with A549 and in the test on A498 was > 100 µM (inactive) in each case. Besides, the GI50 in the test on MDA-MB-231, in the test on K562 and in the test with ACHN was > 100 µM (inactive) throughout.
With `Cc1cn(C2OC(CO[Si](C)(C)C(C)(C)C)C(N(C)O[Si](C)(C)C(C)(C)C)C2[Se]c2ccccc2)c(=O)[nH]c1=O` (stereo not drawn), the GI50 with TK-10 was 5.24 µM (inactive); in the test on UACC-62, 8.75 µM (inactive); with SNB-19, 5.82 µM (inactive); in the test on SK-MEL-28, 5.56 µM (inactive); with SF-295 it was 4.15 µM (inactive); with MOLT-4, 3.72 µM (inactive). Moreover, the GI50 was 3.56 µM (inactive) in the test on HCT-116; 3.66 µM (inactive) in the test on KM12; 4.6 µM (inactive) in the test on NCI-H23; 2.75 µM (inactive) in the test on SF-268; 3.85 µM (inactive) in the test on PC-3; 4.76 µM (inactive) in the test on HOP-62. The GI50 in the test with A549 was 4.48 µM (inactive); in the test on A498, 14.9 µM (inactive); in the test on MDA-MB-231 it was 6.27 µM (inactive); in the test with K562 it was 7.59 µM (inactive); in the test on ACHN, 3.92 µM (inactive).
Regarding `COC(=O)C1(Cc2cccc(Cl)c2)CCCCCCN1C(=O)c1ccccc1` (stereo not drawn), the GI50 in the test on TK-10 was 12 µM (inactive); in the test on EKVX it was 12 µM (inactive); in the test on UACC-62 it was 11.1 µM (inactive); in the test with SNB-19, 15.1 µM (inactive); in the test on SK-MEL-28, 14.9 µM (inactive); in the test on SF-295 it was 6.98 µM (inactive). For the same molecule, the GI50 with MOLT-4 was 8.89 µM (inactive); in the test with HCT-116, 13.1 µM (inactive); with NCI-H23, 17.2 µM (inactive); with SF-268, 20.6 µM (inactive); in the test on PC-3, 4.98 µM (inactive); with UACC-257 it was > 10 µM (inactive). The GI50 with HOP-62 was 15.5 µM (inactive); in the test with A549, 14.5 µM (inactive); in the test with A498, 15.4 µM (inactive); in the test with MDA-MB-231, 13 µM (inactive); with K562, 10.7 µM (inactive); in the test with ACHN, 9.46 µM (inactive).
On to `CCc1c2c(cc3c1CC1(C3)Cc3cc4c(c(C(=O)OC)c3C1)CCCC4)CCCC2` (stereo not drawn), for which the GI50 with TK-10 is > 100 µM (inactive); with EKVX it was 28.4 µM (inactive); with UACC-62, 18.5 µM (inactive); in the test with SF-295, > 100 µM (inactive); in the test on MOLT-4, 34.5 µM (inactive); with HCT-116, 20 µM (inactive). The GI50 was > 100 µM (inactive) in the test on KM12; > 100 µM (inactive) in the test on NCI-H23; > 100 µM (inactive) in the test on PC-3; > 100 µM (inactive) in the test on UACC-257; > 100 µM (inactive) in the test on HOP-62; 29.7 µM (inactive) in the test on A549. Besides, the GI50 in the test on A498, in the test with MDA-MB-231, in the test with K562 and with ACHN was > 100 µM (inactive) throughout.
With `CC(=O)n1c2ccc(Br)cc2c2nc3ccccc3nc21`, the GI50 in the test on TK-10, in the test with EKVX, with UACC-62, with SNB-19, with SK-MEL-28 and with SF-295 was > 100 µM (inactive) in each case. For the same molecule, the GI50 with MOLT-4, in the test on HCT-116, with KM12, with CAKI-1, in the test on NCI-H23 and with SF-268 was > 100 µM (inactive) throughout. Besides, the GI50 in the test on PC-3 is > 100 µM (inactive); in the test with UACC-257, > 100 µM (inactive); in the test on HOP-62 it was 95.1 µM (inactive); in the test with MDA-MB-231, > 100 µM (inactive); with K562 it was > 100 µM (inactive); in the test on ACHN, > 100 µM (inactive).
For the molecule `COc1cc(Br)cc2cc(C3=CSC4=NCCN34)c(=O)oc12`, the GI50 in the test with TK-10 was 18.8 µM (inactive); in the test with EKVX it was 17.7 µM (inactive); in the test on UACC-62 it was 17.8 µM (inactive); in the test with SNB-19 it was 18.1 µM (inactive); in the test on SK-MEL-28, 29.5 µM (inactive); in the test with SF-295, 19.4 µM (inactive). Moreover, the GI50 in the test on MOLT-4 is 20 µM (inactive); in the test on HCT-116, 17.8 µM (inactive); with KM12, 20 µM (inactive); with CAKI-1, 34.7 µM (inactive); in the test on NCI-H23, 20.1 µM (inactive); in the test on PC-3 it was 18.3 µM (inactive). In addition, the GI50 is 25.3 µM (inactive) with UACC-257; 19.3 µM (inactive) in the test on HOP-62; 21.3 µM (inactive) in the test on A549; 19.6 µM (inactive) with MDA-MB-231; 26.5 µM (inactive) in the test on K562; 28.3 µM (inactive) in the test on ACHN.
`NS(=O)(=O)c1cc(S(N)(=O)=O)c(NC(=O)Nc2ccc(Cl)c(Cl)c2)c(Cl)c1Cl`: the GI50 in the test on TK-10, with EKVX, with UACC-62, in the test with SNB-19, in the test on SK-MEL-28 and in the test on SF-295 was > 100 µM (inactive) throughout. The GI50 with MOLT-4, in the test on HCT-116, in the test on KM12, in the test on CAKI-1, in the test with NCI-H23 and in the test on SF-268 was > 100 µM (inactive) throughout. In addition, the GI50 in the test with PC-3, in the test with UACC-257, with A549, in the test on MDA-MB-231, with K562 and in the test on ACHN was > 100 µM (inactive) in each case.
As for `COc1ccc2c(c1)c(CC(=O)O)c(C)n2C(=O)c1ccc(Cl)cc1`, the GI50 in the test on TK-10 was 36.6 µM (inactive); with EKVX, > 100 µM (inactive); in the test on SNB-19, 56.9 µM (inactive); in the test with SK-MEL-28, > 100 µM (inactive); in the test with SF-295, > 100 µM (inactive); with MOLT-4, > 100 µM (inactive). The GI50 with HCT-116 was > 100 µM (inactive); in the test with KM12, 60.8 µM (inactive); in the test on CAKI-1, 29.6 µM (inactive); in the test on NCI-H23, 57 µM (inactive); in the test on SF-268, > 100 µM (inactive); in the test with PC-3, 39 µM (inactive). For the same molecule, the GI50 in the test on UACC-257 is > 100 µM (inactive); in the test on HOP-62, 54.5 µM (inactive); with A549, > 100 µM (inactive); with MDA-MB-231 it was > 100 µM (inactive); in the test with K562 it was 13.7 µM (inactive); in the test with ACHN, > 100 µM (inactive).
